Where a SMILES comes first, the peptide text is derived from it. [ ]: non-standard residue; d: D form. hPhe = N[C@@H](CCc1ccccc1)C(=O)O; Nle = CCCC[C@H](N)C(=O)O
Key:
20Si (immunoproteasome) = biological target: T1, 20Si (immunoproteasome) (Homo sapiens, UniProt P28062+P28065+P40306); assay: SPRI measurement of ability of immobilized potential receptor to bind 20Si; format: binding; details: for Selectivity of binding 20Si vs 20Sc, in words (text summary of Table 4): 20Si or 20Sc 2.8 μg mL−1; for Ability to bind 20Si: receptor at 1, 10, 100 μg mL−1, 20Si 2.8 μg mL−1, SPRI signal increase of less than 20% = lack of ability to bind
T1 construct: purchased www.vivabioscience.com (Basepoint Business Centre, United Kingdom)
Description: (§1) Chips were immersed in an ethanolic solution 1-octadecanothiol (ODM) ([…]) for 24 h at room temperature. Then the biosensors have been repeatedly washed in ethanol and water, and dried under a stream of argon. Chips prepared in this way can be stored and used for subsequent measurements. […] After that time, the process of immobilization of the inhibitor by hydrophobic interaction was completed. A biosensor prepared in this way should be used directly for analysis. A diagram of the chip appears in Fig. 1a.
(§2) The chip was immersed in a vessel with an ethanolic solution of cysteamine for 2 h at room temperature. After 2 h, the chip was rinsed with ethanol and water and dried under a stream of argon. A chip prepared in this manner can be stored and used for subsequent measurements. Each of the synthesised inhibitor solutions was activated with NHS (250 mM) and EDC (250 mM) in the ratio 1: 1 and carbonate buffer (pH 8.5) as a suitable reaction medium. Next, 3 μL of this solution was placed on each of nine active sites on the amine-modified surface. The closed vessel with the biosensor and under appropriate conditions of humidity was incubated at 37 °C for 1 h. Next, the biosensor was rinsed with water and dried under a stream of argon. A biosensor prepared in this way should be used directly for testing and analysis.
(§3) SPRI measurements for the protein biosensor array were performed as described elsewhere.[8],[11] Briefly, the measurements were performed at a fixed angle of incident light and the reflectivity was simultaneously measured cross an entire chip surface. The contrast values obtained for all pixels across a particular sample single spot were integrated. The signal was measured twice on the basis of registered images, after immobilization of the inhibitor and after immunoproteasome interaction. The SPRI signal, which is proportional to the coupled protein, was obtained by subtraction between the signals before and after interaction with protein for each spot separately.
(§4) A background correction was applied i.e. some of the sites on the biosensor covered with PBS buffer were used as a control. Non-specific binding was monitored by measuring the SPRI signal at a site on the chip without the receptor (ligand). Minimization of non-specific binding was achieved by preparing samples in PBS buffer (NaCl an KCl concentration ~200 mM) at pH 7.4 near the isoelectric point of the protein.
(§5) A crucial factor for the application of newly synthesised potential receptors is their selectivity. Selectivity for 20Si or 20Sc was checked using SPRI measurements. […] Measurements were performed as described above at three different concentrations of potential receptors (1, 10, 100 μg mL^−1) at a fixed concentration of 20Si (2.8 μg mL^−1) or 20Sc (2.8 μg mL^−1). An increase in the SPRI signal of less than 20% was considered to imply lack of ability to bind 20Si or 20Sc.

chymotrypsin = biological target: T2, chymotrypsin (Bos taurus, UniProt P00766); assay: Inhibition of amidolytic activity of chymotrypsin (chromogenic substrate); format: biochemical; details: substrate Suc-Phe-pNA 8 mM, tris buffer pH 9.0, chymotrypsin 0.4 units mL−1, 3 min pre-incubation at 37 °C, 20 min incubation, absorbance 405 nm, average of triplicate
T2 construct: purchased Sigma (Schnelldorf, Germany)
Description: (§6) Determination of amidolytic activity was performed as described by Okada.[22] The synthetic amidolytic (chromogenic) substrates (Bzl-L-Arg-pNA.HCl for trypsin and Suc-Phe-pNA for chymotrypsin) are selected to give appropriate specificity for inhibition of the serine proteases. A chromophore (para-nitroaniline = pNA, yellow color) is cleaved from the C-terminus amide bond by the protease, and the absorbance can be detected.
(§7) A detailed description of the method is given below. The buffer and the enzyme solution contained: • […] buffer—0.5 mL (pH 7.5), enzyme: trypsin (0.4 units mL^−1), synthetic substrate: Bzl-L-Arg-pNA.HCl (0.2 mL, 8 mM); • tris buffer—0.6 mL (pH 9.0), enzyme: chymotrypsin (0.4 units mL^−1), synthetic substrate: Suc-Phe-pNA (0.2 mL, 8 mM).
(§8) The buffer and 0.1 mL of enzyme solution were added to 0.2 mL of the examined compound dissolved in 0.15 M NaCl (1–11) (as control 0.15 M NaCl). The mixture was incubated for 3 min at 37 °C, then the synthetic substrate was added. After 20 min of incubation, the reaction was stopped by adding 0.1 mL of 50% acetic acid, and the absorbance of the released p-nitroaniline was measured at 405 nm (Spekol 1300, Analytic Jena). Every value represents the average of triplicate determination. The IC50 value was taken as the concentration of the inhibitor which decreased the absorbance at 405 nm by 50% compared with the absorbance measured under the same conditions without the inhibitor.

[1] = biological target: 20Sc (constitutive proteasome; commercially available proteasome) (Homo sapiens, UniProt P28072+P28074+Q99436); assay: SPRI measurement of ability of immobilized potential receptor to bind 20Sc; format: binding, mammalian; details: receptor at 1, 10, 100 μg mL−1, 20Sc 2.8 μg mL−1, SPRI signal increase of less than 20% = lack of ability to bind
Description: as §1, §2, §3, §4, §5

trypsin = assay: Inhibition of amidolytic activity of trypsin (chromogenic substrate); format: biochemical; details: substrate Bzl-L-Arg-pNA.HCl 8 mM, borane buffer pH 7.5, trypsin 0.4 units mL−1, 3 min pre-incubation at 37 °C, 20 min incubation, absorbance 405 nm, average of triplicate
Description: as §6, §7, §8

20Si = biological target: T3, 20Si (Homo sapiens, UniProt P28062+P28065+P40306); assay: Specificity of SPRI biosensor: 20Si determination in the presence of an interferent; format: binding; details: added 20Si 2.80 μg mL−1; for Found 20Si: tripeptide as receptor via cysteamine linker, 20Sc 2.8 μg mL−1, ratio 20Si vs. 20Sc 1:1, 95% confidence limits, 12 measurements; for Recovery: tripeptide as receptor, 20Sc 2.8 μg mL−1, ratio 1:1
T3 construct: purchased www.vivabioscience.com (Basepoint Business Centre, United Kingdom)
Description: as §3, §4
The specificity of the developed biosensor, especially against 20Sc, is crucial factor for the device’s application. Specificity was investigated at different ratios of 20Si and 20Sc and various 20Si concentrations. Additionally, tolerance of human albumin was checked.
This investigation is crucial for the determination of 20Si in the presence of 20Sc. Series of model solutions containing both 20Si (2.8 μg mL^−1) and 20Sc (2.8 μg mL^−1) were determined using four developed biosensors specific for 20Si. The confidence limits of the results are a measure of measurement precision.

SMILES | Selectivity of binding 20Si vs 20Sc, in words (text summary of Table 4) (20Si (immunoproteasome)) | Ability to bind 20Si (20Si (immunoproteasome)) | IC50 (chymotrypsin) | Ability to bind 20Sc [1] | IC50 (trypsin) | Found 20Si (20Si) | Recovery (20Si)
N[C@@H](Cc1ccccc1)C(=O)N[C@@H](Cc1ccccc1)C(=O)N[C@@H](Cc1ccccc1)C(=O)O [compound 2, H-Phe-Phe–Phe-OH] (H-Phe-Phe-Phe-OH) | able to bind both 20Si and 20Sc | + (+, bound) | 185 ± 14 µM | + (+, bound) | – | – | –
C[C@H](NC(=O)[C@@H](N)Cc1ccccc1)C(=O)N[C@@H](Cc1ccccc1)C(=O)O [compound 3, H-Phe-Ala-Phe-OH] (H-Phe-Ala-Phe-OH) | able to bind both 20Si and 20Sc | + (+, bound) | 187 ± 14 µM | + (+, bound) | – | – | –
N[C@@H](Cc1ccccc1)C(=O)N[C@@H](CCc1ccccc1)C(=O)N[C@@H](Cc1ccccc1)C(=O)O [compound 7, H-Phe-hPhe-Phe-OH] (H-Phe-[hPhe]-Phe-OH) | able to bind both 20Si and 20Sc | + (+, bound) | 185 ± 14 µM | + (+, bound) | 44 ± 3 µM | – | –
CC(C)C[C@H](NC(=O)[C@H](CC(C)C)NC(=O)[C@@H](N)Cc1ccccc1)C(=O)O [compound 5, H-Phe-Leu–Leu-OH] (H-Phe-Leu-Leu-OH) | selective inhibition of 20Si | + (+, bound) | 184 ± 14 µM | – (−, lack of bonding) | – | 2.97 ± 0.40 µg/mL | 106%
CC(C)C[C@H](NC(=O)[C@H](Cc1ccccc1)NC(=O)[C@@H](N)CC(C)C)C(=O)O [compound 10, H-Leu-Phe-Leu-OH] (H-Leu-Phe-Leu-OH) | selective inhibition of 20Si | + (+, bound) | 1830 ± 150 µM | – (−, lack of bonding) | 12000 ± 960 µM | 2.89 ± 0.60 µg/mL | 103%
CCCC[C@H](NC(=O)[C@H](CC(C)C)NC(=O)[C@@H](N)Cc1ccccc1)C(=O)O [compound 11, H-Phe-Leu-nLeu-OH] (H-Phe-Leu-[Nle]-OH) | selective inhibition of 20Si | + (+, bound) | 1920 ± 150 µM | – (−, lack of bonding) | 18000 ± 1440 µM | 2.99 ± 0.47 µg/mL | 107%

Further lines, results first:

Selectivity of binding 20Si vs 20Sc, in words (text summary of Table 4) (20Si (immunoproteasome)) | Ability to bind 20Si (20Si (immunoproteasome)) | IC50 (chymotrypsin) | Ability to bind 20Sc [1] | IC50 (trypsin) | Found 20Si (20Si) | Recovery (20Si) | SMILES
able to bind both 20Si and 20Sc | + (+, bound) | 178 ± 14 µM | + (+, bound) | – | – | – | CC(C)C[C@H](NC(=O)[C@@H](N)Cc1ccccc1)C(=O)N[C@@H](Cc1ccccc1)C(=O)O [compound 1, H-Phe-Leu-Phe-OH] (H-Phe-Leu-Phe-OH)
selectivity to 20Sc | – (−, lack of bonding) | 174 ± 13 µM | + (+, bound) | – | – | – | CC(C)C[C@H](NC(=O)[C@H](Cc1ccccc1)NC(=O)[C@@H](N)Cc1ccccc1)C(=O)O [compound 6, H-Phe-Phe-Leu-OH] (H-Phe-Phe-Leu-OH)
does not capture any form of 20S | – (−, lack of bonding) | 184 ± 14 µM | – (−, lack of bonding) | – | – | – | CC(C)C[C@H](N)C(=O)N[C@@H](Cc1ccccc1)C(=O)N[C@@H](Cc1ccccc1)C(=O)O [compound 4, H-Leu-Phe–Phe-OH] (H-Leu-Phe-Phe-OH)
selectivity to 20Sc | – (−, lack of bonding) | 141 ± 11 µM | + (+, bound) | – | – | – | N[C@@H](Cc1ccccc1)C(=O)N[C@@H](Cc1ccccc1)C(=O)O [compound 9, H-Phe-Phe-OH] (H-Phe-Phe-OH)
selective inhibition of 20Si | + (+, bound) | 152 ± 12 µM | – (−, lack of bonding) | 79 ± 6 µM | 2.88 ± 0.44 µg/mL | 103% | CC(C)C[C@H](NC(=O)[C@@H](N)CC(C)C)C(=O)N[C@@H](Cc1ccccc1)C(=O)O [compound 8, H-Leu-Leu-Phe-OH] (H-Leu-Leu-Phe-OH)
